The target in one data set is T1, stromelysin (MMP-3) (Homo sapiens, UniProt P08254).
T1 construct: enzymatic activity of the catalytic domains of human stromelysin and of neutrophil collagenase; made in house
Nature of the data set: Enzymatic activity of the catalytic domain of human stromelysin (fluorogenic substrate). Type of data set: biochemical. To be noted: pH=6.5, 15 min preincubation, fluorescence 328 nm (ex)/393 nm (em). As to the method: (§1) Preparation and determination of the enzymatic activity of the catalytic domains of human stromelysin and of neutrophil collagenase:
(§2) The enzymes stromelysin (MMP-3) and neutrophil collagenase (MMP-8) were prepared according to Ye et al. (Biochemistry; 31 (1992) pages 11231–11235). To measure the enzyme activity or the enzyme inhibitor action, 70 μl of buffer solution and 10 μl of enzyme solution are incubated for 15 min with 10 μl of a 10% strength (v/v) aqueous dimethyl sulfoxide solution, which optionally contains the enzyme inhibitor. After addition of 10 μl of a 10% strength (v/v) aqueous dimethyl sulfoxide solution which contains 1 mmol/L of the substrate, the enzyme reaction is monitored by fluorescence spectroscopy (328 nm (ex)/393 nm(em)). The enzyme activity is shown as the extinction increase/min. The IC50 values listed in Table 2 are determined as those inhibitor concentrations which in each case led to a 50% inhibition of the enzyme.
(§3) The buffer solution contains 0.05% Brij (Sigma, Deisenhofen, Germany) and also 0.1 mol/L Tris/HCl, 0.1 mol/L NaCl, 0.01 mol/L CaCl2 and 0.1 mol/L piperazine-N,N′-bis[2-ethanesulfonic acid] (pH=6.5). The enzyme solution contains 5 μg/ml of one of the enzyme domains prepared according to Ye et al. The substrate solution contains 1 mmol/L of the fluorogenic substrate (7-methoxycoumarin-4-yl)acetyl-Pro-Leu-Gly-Leu-3-(2′,4′-dinitrophenyl)-L-2,3-diaminopropionyl-Ala-Arg-NH2 (Bachem, Heidelberg, Germany).

For data set [1], the target named is T2, neutrophil collagenase (MMP-8) (Homo sapiens, UniProt P22894).
T2 construct: enzymatic activity of the catalytic domains of human stromelysin and of neutrophil collagenase; made in house
The data set can be described thus: Enzymatic activity of the catalytic domain of neutrophil collagenase (fluorogenic substrate). The format is biochemical. To be noted: pH=6.5, 15 min preincubation, fluorescence 328 nm (ex)/393 nm (em), read-out: Neutr. collagenase IC50. The method, then: as §1, §2, §3

T1 sequence (P08254 100-272 limits assumed): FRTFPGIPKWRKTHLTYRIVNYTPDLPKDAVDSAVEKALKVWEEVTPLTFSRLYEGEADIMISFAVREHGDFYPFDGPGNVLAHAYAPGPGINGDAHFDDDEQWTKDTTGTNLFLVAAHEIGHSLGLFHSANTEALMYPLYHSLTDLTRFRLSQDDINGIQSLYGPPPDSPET
T2 sequence (P22894 100-262 limits assumed): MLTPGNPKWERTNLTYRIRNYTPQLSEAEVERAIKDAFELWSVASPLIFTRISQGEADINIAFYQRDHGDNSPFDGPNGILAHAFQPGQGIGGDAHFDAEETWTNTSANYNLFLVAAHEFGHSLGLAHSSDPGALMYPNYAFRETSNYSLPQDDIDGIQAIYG

On to `CCN(C(=O)CC[C@H](NS(=O)(=O)c1ccc(-c2ccccc2)cc1)C(=O)O)c1ccccc1` [Example 98], for which the melting point is > 155 °C (dec.). At stromelysin (MMP-3), the IC50 is 0.4 µM. The IC50 in data set [1] was 0.03 µM.
In the same order, the values of `C[C@H](O)[C@H](NS(=O)(=O)c1ccc(Oc2ccccc2)cc1)C(=O)O` [Example 9] are 96 to 98 °C, 0.3 µM and 0.02 µM.
In the same order, the values of `COc1ccc(NC(=O)CC[C@H](NS(=O)(=O)c2ccc(-c3ccccc3)cc2)C(=O)O)cc1` [Example 89] are 219 to 221 °C, 0.3 µM and 0.02 µM.
Taken in the same sequence, the figures for `NC(=O)CC[C@H](NC(=O)CC[C@H](NS(=O)(=O)c1ccc(-c2ccccc2)cc1)C(=O)O)C(=O)O` [Example 95] were > 110 °C (dec.), 0.3 µM and 0.02 µM.
Regarding `CSCC[C@@H](NS(=O)(=O)c1ccc(-n2nccn2)cc1)C(=O)O` [Example 67], the melting point was 155.5 to 156.5 °C. The same compound had an IC50 at stromelysin (MMP-3) of 1 µM. Moreover, the IC50 in data set [1] is 0.2 µM.
In the same order, the values of `O=C(CC[C@H](NS(=O)(=O)c1ccc(-c2ccccc2)cc1)C(=O)O)Nc1ccncc1` [Example 97] are > 290 °C (dec.), 1 µM and 0.03 µM.
Taken in the same sequence, the figures for `CN(C)c1ccc(-c2ccc(S(=O)(=O)N[C@@H](CCC(=O)O)C(=O)O)cc2)cc1` [Example 70] were > 108 °C (dec.), 0.1 µM and 0.003 µM.
In the same order, the values of `O=C(CC[C@H](NS(=O)(=O)c1ccc(-c2ccccc2)cc1)C(=O)O)Nc1ccccc1Cl` [Example 74] are 187.5 to 188.5 °C, 0.1 µM and 0.01 µM.
In turn, `O=C(CC[C@H](NS(=O)(=O)c1ccc(-c2ccccc2)cc1)C(=O)O)Nc1ccc(C(F)(F)F)cc1` [Example 85] came in with a melting point of 265 °C. Moreover, half-maximal inhibition on stromelysin (MMP-3) (IC50) was put at 3 µM. The IC50 in data set [1] was 0.03 µM.
In the same order, the values of `O=C(CC[C@H](NS(=O)(=O)c1ccc(-c2ccc(Cl)cc2)cc1)C(=O)O)Nc1ccc(F)cc1` [Example 87] are > 245 °C (dec.), 0.03 µM and 0.005 µM.
Taken in the same sequence, the figures for `O=C(O)CNS(=O)(=O)c1ccc(Oc2ccc(Cl)cc2)cc1` [Example 3] were 162 to 164 °C, 20 µM and 0.2 µM.
In the same order, the values of `CN(C)c1ccc(-c2ccc(S(=O)(=O)N[C@H](Cc3c[nH]c4ccccc34)C(=O)O)cc2)cc1` [Example 66] are 258 to 260 °C, 0.02 µM and 0.002 µM.

For orientation: IC50 means the midpoint of a concentration-inhibition curve. Broadly, the melting point is the temperature of the solid-liquid transition.

The record behind these values is patent US7160903B2, “Sulfonylaminocarboxylic acids” (Sanofi-Aventis Deutschland GmbH, priority 1997, dated 2007).
